Laboratory results as given in US7056903B2, “Carboxylic acid derivatives as IP antagonists” (Syntex (U.S.A.) LLC, priority 2000, dated 2006).

| melting point | SMILES |
| --- | --- |
| 132 to 156.1 °C | COc1ccc(-c2ccc3oc(COC(=O)N[C@H](Cc4ccccc4)C(=O)O)cc3c2)cc1 (hydrate or solvate) [Compound 92, (R)-2-[5-(4-methoxy-phenyl)-benzofuran-2-ylmethoxycarbonylamino]-3-phenyl-propionic acid] |
| 208.5 to 209.2 °C | N#Cc1cccc(-c2nc3cc(COC(=O)N[C@H](Cc4ccc(F)cc4)C(=O)O)ccc3o2)c1 [Compound 159, (R)-2-[2-(3-cyano-phenyl)-benzoxazol-5-ylmethoxycarbonylamino]-3-(4-fluoro-phenyl)-propionic acid] |
| 165 to 215 °C | O=C(N[C@H](Cc1ccccc1)C(=O)O)OCc1ccc2[nH]c(-c3ccccc3)nc2c1 [Compound 129, (R)-3-Phenyl-2-(2-phenyl-1H-benzoimidazol-5-ylmethoxycarbonylamino)-propionic acid] |
| 193.8 to 195 °C | O=C(N[C@H](Cc1ccccc1)C(=O)O)OCc1ccc2oc(-c3cc(F)cc(F)c3)nc2c1 [Compound 162, (R)-2-[2-(3,5-difluoro-phenyl)-benzoxazol-5-ylmethoxycarbonylamino]-3-phenyl-propionic acid] |
| 161.9 to 163.7 °C | O=C(N[C@H](Cc1ccccc1)C(=O)O)OCc1ccc(COc2cccc(NC(=O)c3ccccc3)c2)cc1 [Compound 81, (R)-3-phenyl-2-(4-{3-[(1-phenyl-methanoyl)-amino]-phenoxymethyl}-benzyloxycarbonylamino)-propionic acid] |
| 159.4 to 160.1 °C | O=C(N[C@H](Cc1ccccc1)C(=O)O)OCc1cc2cc(Cc3ccccc3)ccc2o1 [Compound 134, (R)-2-(5-benzyl-benzofuran-2-ylmethoxycarbonylamino)-3-phenyl-propionic acid] |
